Source: patent publication US8809306B2, “Combination andolast/glucocorticoids” (Rottapharm S.p.A., priority 2006, dated 2014)

Assays:
[1] = system: airway hyperresponsiveness induced by Sephadex G100 particles; experiment: Sephadex G100-induced lung hyperresponsiveness in rats (bronchoconstriction by Ach); details: G-100 rats
[2] = system: airway response following specific antigen challenge; details: asthmatic patients; cited from earlier work
[3] = system: airway hyperresponsiveness; details: inhalation, 2 to 20 mg, mild-moderate asthmatic patients; AMP, exercise, UNDW, CAH; cited from earlier work
[4] = system: T lymphocytes (Th2) production of IL-5; details: preliminary in-vivo data, atopic asthmatic patients; cited from earlier work
[5] = system: eosinophils in the bronchoalveolar lavage (BAL) fluids; experiment: Sephadex-induced eosinophilia: eosinophil counts in the BAL fluid
[6] = system: human B lymphocytes from allergic donors; details: cited from earlier work

Structure (SMILES)	Protective Effect (%) ([1]; Andolast 3 mg/kg i.m., calculated from Ach ED50)	Ach ED50 ([1]; Andolast 3 mg/kg i.m., dose of Ach i.v. producing 50% response) [mg/kg]	early and late airway response following specific antigen challenge [2]	airway hyperresponsiveness to specific and non-specific bronchostimulation challenges [3]	effect on Th2 production of IL-5 [4]	counts of eosinophils in the BAL fluid ([5]; Andolast 3 mg/kg, Sephadex control 2.6×10^6)	effect on IL-4 dependent IgE synthesis [6]	Protective Effect (%) ([1]; Prednisolone 1 mg/kg orally)	Protective Effect (%) ([1]; Prednisolone 10 mg/kg orally)	counts of eosinophils in the BAL fluid ([5]; Prednisolone 1 mg/kg, Sephadex control 2.6×10^6, normal rats about 1×10^4)	eosinophilia in the BAL fluids, in words ([5]; Prednisolone 10 mg/kg)
O=C(Nc1ccc(-c2nnn[nH]2)cc1)c1ccc(-c2nnn[nH]2)cc1 [Andolast, N-4-(5-tetrazolyl)-phenyl-4-(5-tetrazolyl)-benzamide]	33.3	0.20	completely prevents	prevents in a dose-dependent fashion	inhibitory effect	1.75×10^6	potent inhibitory effect	–	–	–	–
C[C@]12C=CC(=O)C=C1CC[C@@H]1[C@@H]2[C@@H](O)C[C@@]2(C)[C@H]1CC[C@]2(O)C(=O)CO [Prednisolone]	–	–	–	–	–	–	–	11.1	88.8	2×10^6	totally suppressed
